The target in the experiment is Nurr1 (nuclear receptor related 1 protein) (Homo sapiens, UniProt P43354). The experiment is described as follows: tryptophan fluorescence quenching. In kind it is binding.

For orientation: Kd means the free concentration of one partner at which half of the binding sites on the other are occupied at equilibrium, for simple one-to-one binding. High values mean weaker binding, low ones tighter binding.

The structures appear in SMILES notation.

Sequence of Nurr1 (nuclear receptor related 1 protein) (P43354 352-598): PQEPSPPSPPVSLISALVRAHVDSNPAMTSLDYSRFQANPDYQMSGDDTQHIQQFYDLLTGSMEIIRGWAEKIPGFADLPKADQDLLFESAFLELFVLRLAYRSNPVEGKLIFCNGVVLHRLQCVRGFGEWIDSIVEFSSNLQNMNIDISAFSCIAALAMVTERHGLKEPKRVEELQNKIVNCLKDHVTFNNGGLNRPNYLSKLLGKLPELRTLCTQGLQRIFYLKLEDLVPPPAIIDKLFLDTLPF

Regarding `CCCCC/C=C\C/C=C\CCCCCCCC(=O)O` [LA, linoleic acid], the dissociation constant (Kd) came to 101 ± 13 µM.

`CCCCCCCC/C=C\CCCCCCCC(=O)O` [OA, oleic acid] came in with a Kd of 59 ± 15 µM.

The values are drawn from paper PMC6318021 (Structure (London, England : 1993), 2018).
